Measured values reported in patent US20150193575A1, “SYSTEMS AND METHODS OF SELECTING COMPOUNDS WITH REDUCED RISK OF CARDIOTOXICITY” (The Governors of the University of Alberta, priority 2013, published 2015).
pIC50: −log10 of the molar value.

Legend:
hERG channel [1] = molecular target: T1, hERG channel (Homo sapiens, UniProt Q12809); experiment: Automated patch clamp (IonFlux) on AC10 cardiomyocytes stably expressing hERG; settings: for effect on hERG tail currents / electrophysiology (in words): AC10 cardiomyocytes
T1 sequence (Q12809 whole entry): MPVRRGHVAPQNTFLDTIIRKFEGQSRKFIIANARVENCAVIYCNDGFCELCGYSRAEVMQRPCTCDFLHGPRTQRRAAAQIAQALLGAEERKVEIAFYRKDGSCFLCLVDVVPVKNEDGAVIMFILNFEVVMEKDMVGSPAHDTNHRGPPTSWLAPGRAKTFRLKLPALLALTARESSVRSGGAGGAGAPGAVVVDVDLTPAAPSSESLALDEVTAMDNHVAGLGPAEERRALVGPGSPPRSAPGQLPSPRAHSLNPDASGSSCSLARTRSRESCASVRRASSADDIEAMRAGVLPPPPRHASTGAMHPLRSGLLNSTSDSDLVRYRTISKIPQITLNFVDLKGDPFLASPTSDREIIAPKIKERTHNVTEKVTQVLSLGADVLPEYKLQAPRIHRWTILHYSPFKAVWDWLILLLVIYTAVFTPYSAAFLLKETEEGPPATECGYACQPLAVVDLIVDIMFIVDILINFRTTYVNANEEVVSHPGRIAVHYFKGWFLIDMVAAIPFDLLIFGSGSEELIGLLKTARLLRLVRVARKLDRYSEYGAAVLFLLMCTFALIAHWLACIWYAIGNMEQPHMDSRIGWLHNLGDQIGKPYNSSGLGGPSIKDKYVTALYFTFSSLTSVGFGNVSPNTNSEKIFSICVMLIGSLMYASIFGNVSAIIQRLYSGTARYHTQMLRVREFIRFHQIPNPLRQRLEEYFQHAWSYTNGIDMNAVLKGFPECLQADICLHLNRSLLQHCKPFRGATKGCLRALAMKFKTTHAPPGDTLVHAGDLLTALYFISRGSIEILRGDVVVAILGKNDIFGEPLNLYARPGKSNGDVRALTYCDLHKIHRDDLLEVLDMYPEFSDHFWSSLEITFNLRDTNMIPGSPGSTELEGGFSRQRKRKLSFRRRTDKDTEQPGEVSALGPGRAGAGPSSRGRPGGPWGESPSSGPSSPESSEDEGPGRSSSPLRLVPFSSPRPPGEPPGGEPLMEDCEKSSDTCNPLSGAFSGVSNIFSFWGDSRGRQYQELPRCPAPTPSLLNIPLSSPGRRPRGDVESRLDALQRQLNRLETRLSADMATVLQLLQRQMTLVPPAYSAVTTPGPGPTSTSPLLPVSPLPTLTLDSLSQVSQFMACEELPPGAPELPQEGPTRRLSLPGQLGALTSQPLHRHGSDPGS

hERG channel [2] = molecular target: T1, hERG channel; experiment: Predictor hERG fluorescence polarization assay
Protocol: Compounds that bind to the hERG channel proteins were identified by their ability to displace the tracer (Predictor hERG Tracer Red) and decrease the fluorescence polarization. The Tracer Red ligand was stored in 100% DMSO and diluted to 8 nM in assay buffer (50 mM Tris-HCl, 1 mM MgCl2, 10 mM KCl, 0.05% Pluronic F127, pH 7.4, 4° C.) on the day of the experiment. Test samples and controls were diluted in assay buffer to 16 concentrations with half-log intervals. Cell membranes were removed from the −80° C. freezer and placed on ice after defrosting. Membranes working solution protein concentration was 0.3 mg/mL. […] IC50 values were derived by fitting a sigmoidal function to concentration-response data, where concentration-dependent inhibition was observed. All IC50 data were calculated and analyzed using GraphPad Prism 6 (GraphPad Software).

hERG1 potassium channel = hERG1 potassium channel (Homo sapiens, UniProt Q12809); experiment: in vitro
hERG1 potassium channel, sequence (Q12809 whole entry): as above
Protocol: Mammalian cells expressing the hERG1 potassium channel were dispensed into 384-well planar arrays and hERG tail-currents were measured by whole-cell voltage-clamping. A range of concentrations (TBD) of the test compounds were then added to the cells and a second recording of the hERG current was made. The percent change in hERG current was calculated.
The experiments were performed on an IonWorks™ FIT instrument (Molecular Devices Corporation), which automatically performs electrophysiology measurements in 48 single cells simultaneously in a specialised 384-well plate (PatchPlate™). All cell suspensions, buffers and test compound solutions were at room temperature during the experiment.
The cells used were Chinese hamster ovary (CHO) cells stably transfected with hERG (cell-line obtained from Cytomyx, UK). A single-cell suspension was prepared in extracellular solution (Dulbecco's phosphate buffered saline with calcium and magnesium pH 7-7.2) and aliquots were added automatically to each well of a PatchPlate™. The cells were then positioned over a small hole at the bottom of each well by applying a vacuum beneath the plate to form an electrical seal. The vacuum was applied through a single compartment common to all wells which were filled with intracellular solution (buffered to pH 7.2 with HEPES). The resistance of each seal was measured via a common ground-electrode in the intracellular compartment and individual electrodes placed into each of the upper wells.
Electrical access to the cell was then achieved by circulating a perforating agent, amphotericin, underneath the PatchPlate™ and then measuring the pre-compound hERG current. An electrode was positioned in the extracellular compartment and a holding potential of −80 mV for 15 sec was applied. The hERG channels were then activated by applying a depolarising step to +40 mV for 5 sec and then clamped at −50 mV for 4 sec to elicit the hERG tail current, before returning to −80 mV for 0.3 s.
A test compound was then added automatically to the upper wells of the PatchPlate™ from a 96-well microtitre plate containing a range of concentrations of each compound. Solutions were prepared by diluting DMSO solutions of the test compound into extracellular buffer. The test compound was left in contact with the cells for 300 sec before recording currents using the same voltage-step protocol as in the pre-compound scan. […] Each concentration was tested in 4 replicate wells on the PatchPlate™.
Post-compound currents were then expressed as a percentage of pre-compound currents and plotted against concentration for each compound. Where concentration-dependent inhibition is observed, the data are fitted to the following equation and an IC50 value calculated: […]
An IC50 was reported if concentration-dependent inhibition is observed. The standard error (SE) of the IC50 model and the number of data-points used to determine IC50 was also reported.

hERG1 = hERG1 (Homo sapiens, UniProt Q12809); experiment: FluxOR potassium channel assay in HEK 293 cells stably expressing hERG1
hERG1, sequence (Q12809 whole entry): as above
Protocol: The FluxOR™ assay monitors the permeability of potassium channels to thallium (Tl^+) ions. When thallium is added to the extracellular solution with a stimulus to open channels, thallium flows down its concentration gradient into the cells, and channel or transporter activity is detected with a proprietary indicator dye that increases in cytosolic fluorescence. Accordingly, the fluorescence reported in the FluxOR™ system is an indicator of any ion channel activity or transport process that allows thallium into cells.
Briefly, FluxOR™ loading buffer was made from Hank's Balanced Saline Solution (HBSS) buffered with 20 mM HEPES and pH adjusted with NaOH to 7.4. Powerload™ concentrate and water-soluble probenecid were used as directed by the kit to enhance the dye solubility and retention, respectively. Media were removed from the cell plates manually, and 20 of loading buffer containing the FluxOR™ dye mix was applied to each well. Once inside the cell, the nonfluorescent AM ester form of the FluxOR™ dye was cleaved by endogenous esterases into a thallium-sensitive indicator. The dye was loaded for 60 min at room temperature and then removed manually. […] To each well 20 μL stimulation buffer was added and fluorescence measures were done every 1 sec for a total time of 180 sec.

[3] = clinical trial, placed on clinical hold by the FDA; cited from earlier work

Compound: COc1nc(N)nc2c1ncn2[C@@H]1O[C@H](COP(=O)(N[C@@H](C)C(=O)OCC(C)(C)C)Oc2cccc3ccccc23)[C@@H](O)[C@@]1(C)O (some centres unmarked) [BMS986094]
- pIC50 (hERG channel [1]): 6.57
- pIC50 (hERG channel [2]): 8.43

Compound: CC(=O)Oc1ccccc1C(=O)O [Aspirin, acetyl salicylic acid]
- inhibition at 300 sec, 0.0032 µM (hERG1 potassium channel; human): -2.97%
- inhibition at 300 sec, 0.016 µM (hERG1 potassium channel; human): -3.09%
- inhibition at 300 sec, 0.08 µM (hERG1 potassium channel; human): -21%
- inhibition at 300 sec, 0.4 µM (hERG1 potassium channel; human): -5.88%
- inhibition at 300 sec, 2 µM (hERG1 potassium channel; human): -3.71%
- inhibition at 300 sec, 10 µM (hERG1 potassium channel; human): -0.546%

Compound: CS(=O)(=O)c1ccc(C2=C(c3ccccc3)C(=O)OC2)cc1 [rofecoxib]
- pIC50 (hERG channel [1]): 4.82
- pIC50 (hERG channel [2]): 5.23

Compound: CC(C)NCC(O)c1ccc(NS(C)(=O)=O)cc1 (centres unmarked) [Sotalol]
- inhibition at 300 sec, 0.0032 µM (hERG1 potassium channel; human): 1.69%
- inhibition at 300 sec, 0.016 µM (hERG1 potassium channel; human): -0.73%
- inhibition at 300 sec, 0.08 µM (hERG1 potassium channel; human): 20.4%
- inhibition at 300 sec, 0.4 µM (hERG1 potassium channel; human): 10.9%
- inhibition at 300 sec, 2 µM (hERG1 potassium channel; human): 1.72%
- inhibition at 300 sec, 10 µM (hERG1 potassium channel; human): 0.95%

Compound: Nc1nc2c(ncn2[C@@H]2O[C@H](CO)[C@@H](O)[C@H]2O)c(=O)[nH]1 [Guanosine, guanosine]
- effect on hERG tail currents / electrophysiology (in words) (hERG channel [1]): none of BMS-986094 metabolites demonstrates either hERG cavity binding or electrophysiology changes
- inhibition at 300 sec, 0.0032 µM (hERG1 potassium channel; human): 0.711%
- inhibition at 300 sec, 0.016 µM (hERG1 potassium channel; human): 6.12%
- inhibition at 300 sec, 0.08 µM (hERG1 potassium channel; human): -3.46%
- inhibition at 300 sec, 0.4 µM (hERG1 potassium channel; human): 26.3%
- inhibition at 300 sec, 2 µM (hERG1 potassium channel; human): 0.453%
- inhibition at 300 sec, 10 µM (hERG1 potassium channel; human): 5.54%
- displacement of the hERG-bound dye (in words) (hERG channel [2]): no detectable effect on hERG blockage

Compound: COc1nc(N)nc2c1ncn2C1O[C@H](COP(=O)(N[C@H](C)C(=O)OCC(C)(C)C)Oc2cccc3ccccc23)[C@@H](O)[C@@]1(C)O (stereo partly drawn) [BMS-986094, (2R)-neopentyl 2-(((((2R,3R,4R)-5-(2-amino-6-methoxy-9H-purin-9-yl)-3,4-dihydroxy-4-methyltetrahydrofuran-2-yl)methoxy)(naphthalen-1-yloxy)phosphoryl)amino)propanoate]
- pIC50 (hERG channel [1]): 6.57
- effect on hERG tail currents / electrophysiology (in words) (hERG channel [1]): potently blocks hERG tail currents
- block of conductance of the potassium channel (in words) (hERG1): block conductance of the potassium channel
- inhibition of the potassium channel (in words) (hERG1 potassium channel; CHO cells stably transfected with hERG): inhibit the potassium channel
- inhibition at 300 sec, 0.0032 µM (hERG1 potassium channel; human): 18.2%
- inhibition at 300 sec, 0.016 µM (hERG1 potassium channel; human): -4.94%
- inhibition at 300 sec, 0.08 µM (hERG1 potassium channel; human): -8.97%
- inhibition at 300 sec, 0.4 µM (hERG1 potassium channel; human): -5.33%
- inhibition at 300 sec, 10 µM (hERG1 potassium channel; human): 23.3%
- pIC50 (hERG channel [2]): 8.52
- effects on QT interval prolongation in patients (in words) [3]: nine patients in a clinical trial had to be hospitalized and one of them died

Compound: O=c1[nH]c2ccccc2n1C1CCN(CCCC(c2ccc(F)cc2)c2ccc(F)cc2)CC1 [Pimozide]
- inhibition at 300 sec, 0.00032 µM (hERG1 potassium channel; human): 2.29%
- inhibition at 300 sec, 0.0016 µM (hERG1 potassium channel; human): 4.56%
- inhibition at 300 sec, 0.008 µM (hERG1 potassium channel; human): 5.6%
- inhibition at 300 sec, 0.04 µM (hERG1 potassium channel; human): 25.1%
- inhibition at 300 sec, 0.2 µM (hERG1 potassium channel; human): 9.44%
- inhibition at 300 sec, 1 µM (hERG1 potassium channel; human): 83.2%
